We go through 18 substances from patent US20240368668A1, “SUBSTRATES AND BIOMARKERS OF ADAMTS7” (The Broad Institute, Inc., priority 2021, published 2024).

For this assay, the system named is mouse ADAMTS7. Nature of the assay: TMT10 TAILS N-terminomics, SMC1 experiment (Ad-mADAMTS7 WT vs EQ vs Luc, technical replicates, trypsin digest). In kind it is cell-based. Conditions: TAILS neo-N-terminal peptide abundance; log fold change, Ad-mADAMTS7 WT over EQ. The text has this: ADAMTS7 Expression, Cell Culture and Preparation of the Secreted Proteins—Full-length mouse Adamts7 1-1857 (Uniprot Q68SA9, WT or E373Q catalytic mutant) with a carboxyl terminal 3xFLAG tag was used to generate custom adenoviruses as previously described. Adeno-CMV-Luciferase (Ad-Luc) from Vector Biolabs was used as a negative control. Human Coronary Artery Smooth Muscle Cells (HCA-SMC) were obtained from Lonza and expanded in Lonza SmGM-2 media in 15 cm tissue culture plates. Twenty-four hours before media collection, near confluent plates were transduced with 50 MOI adenovirus and switched to Lonza Basal SM media with volumes of 20 ml per 15 cm plate. Expression of the Flag tagged ADAMTS7 was confirmed from the media using western blot and detected using the anti-Flag M2-HRP antibody (Sigma, A8592). Collected media was processed by adding protease inhibitors (1 mM EDTA and 1 mM PMSF) and clarified by 500 g×5 min spin at 4 C to pellet cell debris. Cell media supernatants were then passed through a 0.22 um filter and kept chilled. Processed media was then concentrated 50-100× using 3 kDa Centricon Plus-70 filter unit, spun at 3,500 g×60 min at 4 C. Approximately 10% of the processed, concentrated media was set aside for total secretome proteolytic analysis. The remaining 90% of the processed, concentrated media was buffer exchanged into 50 mM HEPES pH 8.0, 150 mM NaCl (2×50 ml) using the 3 kDa Centricon Plus-70 filter unit and concentrated to >2 mg/ml to serve as input for the TAILS experiment. Secretome and TAILS input samples were stored at −80° C.
For the first experiment, referred to as SMC1, 120 ml of media from 6×15 cm dishes was pooled from each condition (Luc, WT, EQ) and processed to produce three separate inputs for the TAILS experiment. Luc, WT and EQ inputs from the SMC1 experiment were each divided into triplicate 400 ug samples to generate technical replicate TAILS data. For the second experiment, referred to as SMC2, media was processed separately in triplicate for each condition (Luc1, Luc2, Luc3, WT1, WT2, WT3, EQ1, EQ2, EQ3) using 60 ml of media from 3×15 cm dishes for each process replicate. Inputs from the SMC2 experiment used process replicates of 300 ug each to generate TAILS data. The third experiment used input from cultured Human umbilical vein endothelial cells (HUVEC) from Lifeline Cell Technology grown in VascuLife Media and transduced in Lifeline Basal EC (+bFGF2 10 ng/ml). The HUVEC experiment used the same strategy as the SMC2 experiment, with 40 ml of media from 2×15 cm dishes for each process replicate and used 200 ug each to generate TAILS data. Inputs for process replicate experiments were restricted to the lowest concentration from the 9 parallel samples for SMC2 or HUVEC.
TMT10 isotopic labeling and negative selection of non-labeled peptides-Sample preparation was performed based on the TAILS protocol from the Overall lab with some modifications. From a single experiment, nine parallel protein samples in 50 mM HEPES pH 8.0, 150 mM NaCl were separately denatured with guanidinium chloride (Sigma, G4505) to reach a final concentration of 2.5M guanidinium chloride and 250 mM HEPES and incubated at 65° C. for 15 min. Reduction was achieved through addition of tris(2-carboxylethyl) phosphine (TCEP) at a final concentration of […] and incubated at 65° C. for 45 min. Alkylation reaction was performed with addition of iodoacetamide (IAA, Sigma, A3221) to a final concentration of 10 mM IAA for 15 min at room temperature in the dark. Following denaturation, reduction and alkylation steps, ten percent of each of the nine parallel protein samples was removed and combined to serve as a pooled reference. Isobaric tags were added to free amine groups using the TMT10plex Isobaric Mass Tagging Kit (ThermoFisher, 90113) with TMT channels randomly assigned to the nine samples and TMT 131 assigned to the pooled reference. […]
On to “LOX_58 (LSLGSQYQPQR; listed as Homo sapiens)”, for which the logFC.mWT.over.mEQ is 0.99.

“LOX_80 (ANASAQQPR; listed as Homo sapiens)”: the logFC.mWT.over.mEQ turned out to be 2.18.

In the case of “LOX_81 (NASAQQPR; listed as Homo sapiens)”, the logFC.mWT.over.mEQ came to 1.69.

“LOX_123 (HWFQAGYSTSR; listed as Homo sapiens)” yielded a logFC.mWT.over.mEQ of 1.82.

With “LOX_124 (WFQAGYSTSR; listed as Homo sapiens)”, the logFC.mWT.over.mEQ came to 3.62.

“LOX_126 (QAGYSTSR; listed as Homo sapiens)” yielded a logFC.mWT.over.mEQ of 1.59.

As for “LTBP1_393 (LTATNFR; listed as Homo sapiens)”, the logFC.mWT.over.mEQ amounted to 3.89.

Regarding “LTBP1_494 (SVQIHQVSR; listed as Homo sapiens)”, the logFC.mWT.over.mEQ was 2.63.

“LTBP1_540 (HQQVIPHVYPVAAKTQLGR; listed as Homo sapiens)” returned a logFC.mWT.over.mEQ of 2.70.

In turn, “LTBP1_546 (HVYPVAAKTQLGR; listed as Homo sapiens)” had a logFC.mWT.over.mEQ of 4.67.

Regarding “LTBP2_485 (SVQIHQVAQVR; listed as Homo sapiens)”, the logFC.mWT.over.mEQ worked out at 2.23.

For the substance “LTBP2_533 (SGEPPRPLPPAAPR; listed as Homo sapiens)”, the logFC.mWT.over.mEQ is given as 1.06.

Consider “LTBP2_677 (SLGPGTCTLPLAQR; listed as Homo sapiens)”, for which the logFC.mWT.over.mEQ was 0.85.

Substance “LTBP2_760 (SSGALPGPAER; listed as Homo sapiens)” registered a logFC.mWT.over.mEQ of 1.24.

On to “LTBP2_1023 (GKCTNLEGSFR; listed as Homo sapiens)”, for which the logFC.mWT.over.mEQ is listed as 0.71.

Regarding “LTBP2_1371 (SGQKGHAPCSSVLGR; listed as Homo sapiens)”, the logFC.mWT.over.mEQ is 0.93.

For “LTBP2_1560 (TTYTECCCQDGEAWSQQCALCPPR; listed as Homo sapiens)”, the logFC.mWT.over.mEQ is given as 0.71.

Substance “LTBP2_1584 (SSEVYAQLCNVAR; listed as Homo sapiens)” registered a logFC.mWT.over.mEQ of 1.08.
